The record followed here is article PMC3401313 (Bioorganic & medicinal chemistry letters, 2012).

One assay deals with recombinant human HDAC3 (Homo sapiens, UniProt O15379). Nature of the assay: HDAC3 fluorogenic inhibition assay. The following applies: read-out: HDAC3 %Inhibition(10µM).
For assay [1], the target named is recombinant His-tagged HDAC2 (Homo sapiens, UniProt Q92769). Type of assay: binding. The settings on record: probe 25 µM, HDAC2 1.25 µM, Trichostatin A 125 µM (5-fold molar excess), 24 h preincubation, 254 nm UV.
Chain of recombinant His-tagged HDAC2 (Q92769 whole entry): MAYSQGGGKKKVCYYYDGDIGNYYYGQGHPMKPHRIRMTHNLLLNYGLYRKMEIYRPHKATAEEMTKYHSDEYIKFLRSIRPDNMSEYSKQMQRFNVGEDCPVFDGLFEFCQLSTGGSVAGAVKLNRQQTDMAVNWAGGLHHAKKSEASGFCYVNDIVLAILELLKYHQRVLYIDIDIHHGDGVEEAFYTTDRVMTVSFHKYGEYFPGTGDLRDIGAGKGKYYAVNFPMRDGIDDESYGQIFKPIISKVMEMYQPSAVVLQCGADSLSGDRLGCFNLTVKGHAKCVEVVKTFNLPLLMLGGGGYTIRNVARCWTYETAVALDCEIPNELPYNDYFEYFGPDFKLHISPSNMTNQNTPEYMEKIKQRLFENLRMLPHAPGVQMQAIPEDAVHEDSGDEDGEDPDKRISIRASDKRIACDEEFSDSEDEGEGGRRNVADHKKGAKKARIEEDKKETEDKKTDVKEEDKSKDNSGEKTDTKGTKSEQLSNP

Chain of recombinant human HDAC3 (O15379 whole entry): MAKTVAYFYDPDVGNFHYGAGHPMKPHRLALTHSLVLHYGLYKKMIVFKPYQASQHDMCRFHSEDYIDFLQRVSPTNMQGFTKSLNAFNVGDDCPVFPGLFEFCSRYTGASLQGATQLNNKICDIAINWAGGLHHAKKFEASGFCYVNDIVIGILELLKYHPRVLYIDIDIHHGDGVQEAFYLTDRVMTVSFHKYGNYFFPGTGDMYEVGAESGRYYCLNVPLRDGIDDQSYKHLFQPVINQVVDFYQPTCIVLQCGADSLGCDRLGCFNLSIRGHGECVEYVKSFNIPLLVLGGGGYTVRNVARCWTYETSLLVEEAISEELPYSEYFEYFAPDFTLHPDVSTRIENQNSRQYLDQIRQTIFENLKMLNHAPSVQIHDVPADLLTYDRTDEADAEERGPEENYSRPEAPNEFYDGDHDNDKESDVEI
Chain of recombinant human HDAC3 (Q9Y618 395-489 partner limits assumed): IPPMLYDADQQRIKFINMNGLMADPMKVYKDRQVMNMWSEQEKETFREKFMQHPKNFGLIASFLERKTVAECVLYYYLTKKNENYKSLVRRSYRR

In general, inhibition refers to how much of the control response was suppressed. Take `O=C(CCCCCCC(=O)Nc1ccccc1)NO` [SAHA, suberoyl anilide hydroxamic acid]: at recombinant human HDAC3, the inhibition at 10 µM came to 100%.

Consider `[N-]=[N+]=NCCC(=O)Nc1ccc(C(=O)Nc2cc(N=[N+]=[N-])ccc2N)cc1` [1g], for which the “biotinylation of HDAC2 in competition with Trichostatin A” value in assay [1] is reported as “slightly less pronounced”.
